Source: US8940310B2, “Methods of treatment using TLR7 and/or TLR9 inhibitors” (Dynavax Technologies Corporation, priority 2010, dated 2015)
Marks after values point to notes of the source that are not given here. [I] = hypoxanthine (inosine)

What was measured:
[1] = High dosages of IRPs in mice (weight, histology); format: in vivo, BALB/c mice; conditions: for Heart: Chronic inflammation, mean severity score / Heart: Mineralization, mean severity score / Liver: Liver changes, mean severity score / Liver: Mixed cell infiltration, mean severity score / Right Kidney: Tubular changes, mean severity score: 0 = no change to 4 = severe; for Liver: Liver changes, number of animals / Liver: Mixed cell infiltration, number of animals / Liver: No significan changes, number of animals / Right Kidney: No significant changes, number of animals / Right Kidney: Tubular basophilia, number of animals / Right Kidney: Tubular changes, number of animals: 6 animals; for Heart: No significant changes, number of animals: tissue missing in two animals
In short: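 BALB/c mice (n=5 per group) received IRPs or saline subcutaneously at 4, 20, 50 or 100 mg/kg on days 1, 4, 7 and 10. Body weight tracked over the study; at termination organ weights, tissue oligonucleotide levels and liver, kidney and heart histology were assessed.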

[2] = High dosages of IRPs in rats (weight, deaths, histology); format: in vivo, Sprague Dawley rats; conditions: for Heart: Cell Vacuolation, number of animals / Heart: Hemorrhage, number of animals / Heart: Mononuclear Cell Infiltration, number of animals / Heart: Necrosis, number of animals / Heart: No significant changes, number of animals / Liver: Liver changes, number of animals / Liver: Mixed cell infiltration, number of animals / Liver: Necrosis, number of animals / Liver: No significant changes, number of animals / Liver: Vacuolation, number of animals / Right Kidney: Hydronephrosis, number of animals / Right Kidney: Mineralization, number of animals / Right Kidney: Necrosis, number of animals / Right Kidney: No significant changes, number of animals / Right Kidney: Tubular basophilia, number of animals / Right Kidney: Tubular changes, number of animals: 6 animals
human B-cells = assay: Human B-cells cultured in the presence of IRPs, IL-6
Description: For the human B-cell assay, B-cells were purified from total blood cells obtained from healthy donors using magnetic beads (CD19 positive). Cells were resuspended in fresh medium (RPMI 1640 with 10% fetal calf serum, 50 units/mL penicillin, 50 μg/mL streptomycin, and 2 mM glutamine). At 48 hours, supernatants were collected and cytokine levels, IL-6, were measured using immunoassay.
To further investigate the effect of IRPs on B-cell stimulatory activity, a wide variety of IRP sequences were assayed for IL-6, along with positive and negative controls. The experiment was performed as described in Example 1 using doses of IRP of either 4.0 μM or 2.0 μM. The positive control was an immunostimulatory sequence (ISS) with SEQ ID NO:157. […] The results are presented as the average normalized IL-6 response over several experiments.

[3] = Monomer and tetramer formation of IRPs, size-exclusion HPLC; format: physicochemical; conditions: 100 mg/mL in PBS and 0.5M KCl, room temperature
Description: Solutions were prepared of the by mixing 100 mg/mL of the IRP sequences in PBS and 0.5M KCl and storing at room temperature for three to five weeks. The solutions were subsequently analyzed by size-exclusion HPLC.

[4] = rat, 10 mg/kg, 0 = no change to 4 = severe
[5] = rat, 90 mg/kg, 0 = no change to 4 = severe
[6] = Experiment # 1, Max Conc 4.0 uM
[7] = Experiment # 2, Max Conc 4.0 uM
[8] = Experiment # 3, Max Conc 4.0 uM
[9] = Experiment # 9, Max Conc 2.0 uM

## 5′-TGCTCCTGGAGGGGTTGT-3′ (DNA, backbone not given here) [SEQ ID NO:42]
[1]; 50 mg/kg
  Heart: Chronic inflammation, number of animals: 1
  Heart: Mineralization, number of animals: 1
  Heart: Chronic inflammation, mean severity score: 2.0
  Heart: Mineralization, mean severity score: 3.0
  Liver: Liver changes, mean severity score: 1.0
  Liver: Mixed cell infiltration, mean severity score: 1.8
  Right Kidney: Tubular changes, mean severity score: 1.0
  Liver: Liver changes, number of animals: 5
  Liver: Mixed cell infiltration, number of animals: 4
  Liver: No significan changes, number of animals: 0
  Right Kidney: No significant changes, number of animals: 1
  Right Kidney: Tubular basophilia, number of animals: 0
  Right Kidney: Tubular changes, number of animals: 5
  Heart: No significant changes, number of animals: 2**
[1]; 100 mg/kg
  Heart: Chronic inflammation, number of animals: 0
  Heart: Mineralization, number of animals: 1
  Heart: Mineralization, mean severity score: 2.0
  Liver: Liver changes, mean severity score: 1.8
  Liver: Mixed cell infiltration, mean severity score: 2.0
  Right Kidney: Tubular changes, mean severity score: 1.0
  Liver: Liver changes, number of animals: 6
  Liver: Mixed cell infiltration, number of animals: 4
  Liver: No significan changes, number of animals: 0
  Right Kidney: No significant changes, number of animals: 0
  Right Kidney: Tubular basophilia, number of animals: 0
  Right Kidney: Tubular changes, number of animals: 6
  Heart: No significant changes, number of animals: 3**
[1]; 100 mg/kg SC days 1, 4, 7, 10
  weight loss as % gain versus pre-dose: but not SEQ ID NO:42 provoked weight loss
[2]; rat, 10 mg/kg or 100 mg/kg SC days 0, 3, 6, 9
  organ weight of the liver, heart, kidney, or spleen: no significant difference
[2]; rat, 10 mg/kg
  Heart: Cell Vacuolation, number of animals: 0
  Heart: Hemorrhage, number of animals: 0
  Heart: Mononuclear Cell Infiltration, number of animals: 1
  Heart: Necrosis, number of animals: 0
  Heart: No significant changes, number of animals: 5
  Liver: Liver changes, number of animals: 1
  Liver: Mixed cell infiltration, number of animals: 2
  Liver: Necrosis, number of animals: 0
  Liver: No significant changes, number of animals: 3
  Liver: Vacuolation, number of animals: 0
  Right Kidney: Hydronephrosis, number of animals: 0
  Right Kidney: Mineralization, number of animals: 3
  Right Kidney: Necrosis, number of animals: 0
  Right Kidney: No significant changes, number of animals: 0
  Right Kidney: Tubular basophilia, number of animals: 0
  Right Kidney: Tubular changes, number of animals: 6
[2]; [4]
  Heart: Mononuclear Cell Infiltration, mean severity score: 2.0
  Liver: Liver changes, mean severity score: 1.0
  Liver: Mixed cell infiltration, mean severity score: 1.5
  Right Kidney: Mineralization, mean severity score: 2.0
  Right Kidney: Tubular changes, mean severity score: 1.0
[2]; rat, 90 mg/kg
  Kidney: tubular basophilia: occurred
  Liver: hepatocellular necrosis: hepatocellular necrosis
  Heart: Cell Vacuolation, number of animals: 0
  Heart: Hemorrhage, number of animals: 0
  Heart: Mononuclear Cell Infiltration, number of animals: 0
  Heart: Necrosis, number of animals: 0
  Heart: No significant changes, number of animals: 6
  Liver: Liver changes, number of animals: 6
  Liver: Mixed cell infiltration, number of animals: 4
  Liver: Necrosis, number of animals: 1
  Liver: No significant changes, number of animals: 0
  Liver: Vacuolation, number of animals: 0
  Right Kidney: Hydronephrosis, number of animals: 0
  Right Kidney: Mineralization, number of animals: 1
  Right Kidney: Necrosis, number of animals: 0
  Right Kidney: No significant changes, number of animals: 0
  Right Kidney: Tubular basophilia, number of animals: 4
  Right Kidney: Tubular changes, number of animals: 6
[2]; [5]
  Liver: Liver changes, mean severity score: 2.3
  Liver: Mixed cell infiltration, mean severity score: 2.1
  Liver: Necrosis, mean severity score: 3.5
  Right Kidney: Mineralization, mean severity score: 1.0
  Right Kidney: Tubular basophilia, mean severity score: 1.5
  Right Kidney: Tubular changes, mean severity score: 2.0
Human B-cells; [6]
  Normalized IL-6 Response (Percentage of Positive Control): 13%
Human B-cells; [7]
  Normalized IL-6 Response (Percentage of Positive Control): 14%
Human B-cells; [8]
  Normalized IL-6 Response (Percentage of Positive Control): 5%
Human B-cells; Experiment # 4, Max Conc 4.0 uM
  Normalized IL-6 Response (Percentage of Positive Control): 9%
Human B-cells; Experiment # 5, Max Conc 4.0 uM
  Normalized IL-6 Response (Percentage of Positive Control): 10%
Human B-cells; Experiment # 6, Max Conc 4.0 uM
  Normalized IL-6 Response (Percentage of Positive Control): 6%
Human B-cells; Experiment # 7, Max Conc 4.0 uM
  Normalized IL-6 Response (Percentage of Positive Control): 9%
Human B-cells; Experiment # 8, Max Conc 2.0 uM
  Normalized IL-6 Response (Percentage of Positive Control): 8%
Human B-cells; [9]
  Normalized IL-6 Response (Percentage of Positive Control): 6%
Human B-cells; Experiment # 10, Max Conc 2.0 uM
  Normalized IL-6 Response (Percentage of Positive Control): 18%
Human B-cells; Experiment # 11, Max Conc 2.0 uM
  Normalized IL-6 Response (Percentage of Positive Control): 10%
Human B-cells; human B-cells with IRP alone, 48 hours, FIGS. 1A-B
  B-cell response as evidenced by IL-6 produced: did not induce any B-cell response
[3]; three weeks
  fraction in monomer form: 54.01%
  fraction in tetramer form: 45.99%

## 5′-TGC TCC TGG AGI GGT TGT-3′ (DNA TGCTCCTGGAGNGGTTGT; DNA, [I] at 12, backbone and methylation of C not given here) [SEQ ID NO:73]
[1]; 50 mg/kg
  Heart: Chronic inflammation, number of animals: 0
  Heart: Mineralization, number of animals: 2
  Heart: Mineralization, mean severity score: 3.0
  Liver: Liver changes, mean severity score: 1.0
  Liver: Mixed cell infiltration, mean severity score: 1.0
  Liver: Liver changes, number of animals: 1
  Liver: Mixed cell infiltration, number of animals: 2
  Liver: No significan changes, number of animals: 3
  Right Kidney: No significant changes, number of animals: 6
  Right Kidney: Tubular basophilia, number of animals: 0
  Right Kidney: Tubular changes, number of animals: 0
  Heart: No significant changes, number of animals: 2**
[1]; 100 mg/kg
  Heart: Chronic inflammation, number of animals: 1
  Heart: Mineralization, number of animals: 1
  Heart: Chronic inflammation, mean severity score: 2.0
  Heart: Mineralization, mean severity score: 3.0
  Liver: Liver changes, mean severity score: 1.0
  Liver: Mixed cell infiltration, mean severity score: 1.0
  Right Kidney: Tubular changes, mean severity score: 1.0
  Liver: Liver changes, number of animals: 5
  Liver: Mixed cell infiltration, number of animals: 1
  Liver: No significan changes, number of animals: 1
  Right Kidney: No significant changes, number of animals: 0
  Right Kidney: Tubular basophilia, number of animals: 0
  Right Kidney: Tubular changes, number of animals: 6
  Heart: No significant changes, number of animals: 2**
[2]; rat histology
  toxicity profile: favorable toxicity profiles
[2]; rat, 10 mg/kg
  Heart: Cell Vacuolation, number of animals: 0
  Heart: Hemorrhage, number of animals: 0
  Heart: Mononuclear Cell Infiltration, number of animals: 0
  Heart: Necrosis, number of animals: 0
  Heart: No significant changes, number of animals: 6
  Liver: Liver changes, number of animals: 0
  Liver: Mixed cell infiltration, number of animals: 6
  Liver: Necrosis, number of animals: 0
  Liver: No significant changes, number of animals: 0
  Liver: Vacuolation, number of animals: 0
  Right Kidney: Hydronephrosis, number of animals: 1
  Right Kidney: Mineralization, number of animals: 1
  Right Kidney: Necrosis, number of animals: 0
  Right Kidney: No significant changes, number of animals: 0
  Right Kidney: Tubular basophilia, number of animals: 0
  Right Kidney: Tubular changes, number of animals: 6
[2]; [4]
  Liver: Mixed cell infiltration, mean severity score: 1.8
  Right Kidney: Hydronephrosis, mean severity score: 2.0
  Right Kidney: Mineralization, mean severity score: 1.0
  Right Kidney: Tubular changes, mean severity score: 1.3
[2]; rat, 90 mg/kg
  Heart: Cell Vacuolation, number of animals: 0
  Heart: Hemorrhage, number of animals: 0
  Heart: Mononuclear Cell Infiltration, number of animals: 0
  Heart: Necrosis, number of animals: 0
  Heart: No significant changes, number of animals: 6
  Liver: Liver changes, number of animals: 6
  Liver: Mixed cell infiltration, number of animals: 2
  Liver: Necrosis, number of animals: 0
  Liver: No significant changes, number of animals: 0
  Liver: Vacuolation, number of animals: 0
  Right Kidney: Hydronephrosis, number of animals: 0
  Right Kidney: Mineralization, number of animals: 2
  Right Kidney: Necrosis, number of animals: 0
  Right Kidney: No significant changes, number of animals: 0
  Right Kidney: Tubular basophilia, number of animals: 0
  Right Kidney: Tubular changes, number of animals: 6
[2]; [5]
  Liver: Liver changes, mean severity score: 1.9
  Liver: Mixed cell infiltration, mean severity score: 2.0
  Right Kidney: Mineralization, mean severity score: 1.5
  Right Kidney: Tubular changes, mean severity score: 2.0
Human B-cells; [6]
  Normalized IL-6 Response (Percentage of Positive Control): 11%
Human B-cells; [7]
  Normalized IL-6 Response (Percentage of Positive Control): 13%
Human B-cells; [8]
  Normalized IL-6 Response (Percentage of Positive Control): 6%
Human B-cells; [9]
  Normalized IL-6 Response (Percentage of Positive Control): 11%
Human B-cells; FIG. 1C, percent IL-6 from CpG-ISS
  B-cell stimulatory activity: low B-cell stimulatory activity
[3]; five weeks
  fraction in monomer form: 100%
